The source of these data is patent US20030216569A1, “Method of making HIV protease inhibitors” (priority 1993, published 2003).

As a reminder, the melting point is the temperature, or range, at which the solid turns liquid. In general, IC90 refers to the concentration at which the effect reaches the 90% level.

Where “and” joins values, the source holds several entries; their conditions need not be identical. Equal values may be shown once. Read-outs that look alike come from different tables or passages of the source.

One data set addresses HIV-1 protease (Human immunodeficiency virus type 1 group M subtype B, UniProt P04585). The experiment in a line: Fluorescence HIV-1 Protease Inhibitor Assay (Pandex). It counts as biochemical. Also on record: made in house; host or cells: E. coli K12 L507/pHP10D (NRRL B-18560).
Data set [1] relates to HIV-1 isolates IIIB and/or RF in MT-2 cells. The experiment in a line: SRI primary anti-HIV screen, MTT assay of inhibition of HIV-induced cell killing in MT2 cells. Particulars: MT2 cells. It counts as cell-based. The text has this:
I. Primary Drug Screening of Anti-HIV Compounds at Southern Research Institute (SRI) (Results recorded in Table 1 are designated “SRI CEM (ng/ml)” or “SRI MT2 (ng/ml)”)
(§1) A. Principle of MTT Assay:
(§2) SRI has an established program for the primary antiviral analysis of compounds in microtiter assays which measures the ability of a selected compound to inhibit HIV-induced cell killing. This assay involves the conversion of the tetrazolium dye MTT to a colored formazan product by mitochondrial enzymes in metabolically active cells. This assay system is used at SRI to screen over 30,000 compounds per year. Briefly, the assay involves the infection of CEM or MT2 cells in round bottom 96-well plates. The compound of interest is added just prior to infection. Following 6 days of incubation at 37° C. the plates are stained with MTT. The results of the assay are quantitated spectrophotometrically on a Molecular Devices Vmax plate reader. The data are analyzed by linear regression utilizing an in-house software program to calculate antiviral activity (IC25, IC50, IC95) and toxicity (TC25, TC50, TC95) as well as other values.
(§3) Primary antiviral assays are routinely performed in CEM or MT-2 cells.
(§4) B. Standard Screening Assays in CEM and MT-2 Cells
(§5) 1. Compound dilution and delivery to the plates
Drugs are solubilized in the appropriate vehicle such as distilled water or DMSO if necessary. Latex gloves, lab coats and masks are used during all phases of the handling process to prevent exposure to potentially harmful agents. The drug is prepared at the appropriate concentration and stored at −20° C. until used by the screening laboratory. The first dilution of each compound is made in a dilution tube with medium to yield a concentration two-fold that of the highest test concentration. Sterile titer tubes are then used to make serial one half-log dilutions of each compound. Following drug dilution, the diluted compound is added to the appropriate well of a 96-well microtiter plate. […] When testing includes only six dilutions, two drugs can be assayed on a single microtiter plate. The drugs are added to the plate in a final volume of 100 microliters.
(§6) During the time the drug dilutions are prepared, cells are washed and counted. Viability is monitored by trypan blue dye exclusion and assays are not performed if the viability falls below 90%. Cells are maintained in an exponential growth phase and are split 1:2 on the day prior to assay to assure exponential growth rate.
(§7) For the primary screen, the cell lines utilized are CEM and MT-2. Unless otherwise indicated, the medium used is RPMI 1640 with 10% heat-inactivated fetal calf serum (FBS), glutamine and antibiotics.
(§8) Cells are propagated at 37° C. in an atmosphere of 5% CO2 in air. The virus employed for this work is HIV-1 isolates IIIB and/or RF, which are prepared by an acute infection process.
(§9) Briefly, virus-infected cells are pelleted on a daily basis beginning at three days post-infection until the virus has killed all of the cells in the culture. Reverse transcriptase activity and p24 ELISA are used to identify pools with the greatest amout of virus.
(§10) These 24-hour harvests are pooled, filtered and frozen at −90° C. Prior to use in the assay, the infectious pool of virus is titered on all available cell lines in order to determine the amount of virus required in the antiviral assay.
In general, pools produced by the acute infection method require the addition of one microliter of infectious virus per well resulting in the screening of drugs at a multiplicity of infection of 0.01. In this manner, enough virus is prepared and frozen to complete over one thousand microtiter plates, allowing the testing of up to two thousand compounds from a single stock of infectious virus. The use of a single stock of virus for a long period of testing has very favorable effects on the repeatability of the assay systems. […]

Data set [2] deals with Viral SN123 infected CEM cells. The conditions noted are these: Human immunodeficiency virus 1, CCRF-CEM, values in parentheses are 35B in same assay.
Description: Purpose: To determine IC50 CC50 for compounds:
Media A [1% DMSO] (100 microliters DMSO+9.9 ml media A)
CEM cells @ [1×10^4] cells/ml (4 plate=40 ml) (6 plate=60 ml)
(need 70 microliters of each)
A-D at [10 mM] in 100% DMSO
4 or 6 u-bottom 96-well plates
4 flat bottom 96-well plates for dilutions
8-10 boxes of sterile costar tips
Approximately 10 reagent trays
1000 cells/well=1×10^4 cells/ml=1000 cells/100 microliters 200 microliters=total volume in a well
Cell Preparation and Plating of Cells, Media A and Media A (1% DMSO)
a. Number a 96-well tissue culture plate for each compound tested, one for a control plate, and one for the control compound.
b. Count cells on hemacytometer and resuspend them in 40 ml or 80 ml of Media A at a concentration of [1×10^4]0 cells/ml.
Counting Cells on a Hemacytomer:
Label two 1.8 ml nuc tubes 1 and 2.
Put 0.5 ml of well mixed CEM cells (in growth phase) in tube 1.
Put 50 micoliters PBS and 40 microliters of trypan blue into tube 2.
Mix up the cells in tube 1 then remove 10 microliters of cells and put them into tube 2.
Mix well in tube 2, then remove 10 microliters of the stained cells and put them on the hemacytometer.
Count the number of cells in the center square of the hemacytometer with the microscope set on 10×.
The concentration of the stock CEM's in cells/ml is as follows:
Cells counted×1×10^5=Concentration of CEM's in [cells/ml].
c. Add 200 microliters Media A to: A1 of places 2-6. These are Blanks. A4-H4 of plate 1. These are Blanks.
d. Add 5 microlicers Media A to all wells of Rows A-D of plates 2-6 except A1 (the top half of each plate).
e. Add 50 microliters of Media A to wells A1-D3 of Plate 1 (the top half of the plate).
f. Add 50 microliters Media A[l% DMSO] to all wells of Columns 1-3 of plate 1.
This puts 1000 cells/well.
h. Put plates in an incubator while doing drug dilutions.
Preparation Control and Test Drugs
(1) Put 60 microliters of DMSO into all wells of Columns 2-12, Rows A-E.
(3) Put 70 microliters of A [10 mM] at 100% DMSO into well B1.
(4) Put 70 microliters of B [10 mM] at 100% DMSO into well C1.
(5) Put 70 microliters of C [10 mM] at 100% DMSO into well D1.
(6) Put 70 microliters of D [10 mM] at 100% DMSO into well E1.
Change tips before each dilution.
(1) In rows A-E of another plate make a row for the first 1:10 dilution to correspond to each compound's 100% DMSO row.
A into Row B for the first 1:10 dilution.
B into Row C for the first 1:10 dilution.
C into Row D for the first 1:10 dilution.
D into Row E for the first 1:10 dilution.
(2) Put 180 microliters of media A into all wells of rows A-E corresponding to the 100% DMSO rows. 2.5 ml needed per row.
(3) Remove 20 microliters from all wells of each row of the 100% DMSO rows and transfer it to the corresponding 1:10 row.
(1) Make a plate for every 3 compounds to be tested.
Use 20 ml of media A per plate.
(3) Transfer 25 microliters of each compound from the row in the 1:10 dilution to the corresponding two rows on the 1:100 dilution plate changing tips before each transfer.
Addition of Viral SN123 to Plates
a. Thaw Sn123 in 37° C. water bath for approximately 10 minutes.
b. Dilute Sn123 1:16 by adding 1 ml of Sn123 to 15 ml of media A.
c. Add 50 microliters of Sn123 [1:16] to wells E1-H12 of plates 2-6 and to wells E1-H3 of plate 1.
Addition of Drugs to Plates
a. Add 50 microliters of the control and test drugs from the rows in the 1:100 dilution plates to the appropriate rows in the final plates (changing tips before each transfer). One row in the 1:100 plate will do 4 rows in the final plate. Leave A1 blank.
b. Incubate all plates 7 days at 37° C. 5% CO2.
c. Do Xtt protocol on day 7 as follows:
d. Preparation of Xtt/PMS Solution: (4 plate=20 ml) (6 plate=30 ml)
100 microliters [100 mM] PMS+4.9 ml PBS=PMS at [2 mM]
(2) Heat 500 ml of H2O in microwave for 5 minutes on high.
(3) Put 20 or 30 ml of phenol red RPMI in a 50 ml centrifuge tube.
(4) Put the RPMI in the beaker of hot water.
(5) Add 20 or 30 mg of XTT to the warmed up RPMI.
Data set [3] concerns HIV-1 isolates IIIB and/or RF in CEM cells. Kind of data set: SRI primary anti-HIV screen, MTT assay of inhibition of HIV-induced cell killing in CEM cells. It is filed as cell-based. The conditions noted are these: CEM cells. The procedure: as §1
as §2, with “This” for “SRI has an established program for the primary antiviral analysis of compounds in microtiter assays which measures the ability of a selected compound to inhibit HIV-induced cell killing. This”
as §3, §4, §5
Drugs are solubilized in the appropriate vehicle such as distilled water or DMSO if necessary. Latex gloves, lab coats and masks are used during all phases of the handling process to prevent exposure to potentially harmful agents. The drug is prepared at the appropriate concentration and stored at −20° C. until used by the screening laboratory. The first dilution of each compound is made in a dilution tube with medium to yield a concentration two-fold that of the highest test concentration. Sterile titer tubes are then used to make serial one half-log dilutions of each compound. Following drug dilution, the diluted compound is added to the appropriate well of a 96-well microtiter plate. Up to 12 dilutions can be assayed conveniently in triplicate on a single plate with all appropriate controls including cell control, virus control, toxicity control, drug color control, medium control and plastic (background) control. When testing includes only six dilutions, two drugs can be assayed on a single microtiter plate. The drugs are added to the plate in a final volume of 100 microliters.
as §6, §7, §8, §9, §10
In general, pools produced by the acute infection method require the addition of one microliter of infectious virus per well resulting in the screening of drugs at a multiplicity of infection of 0.01. In this manner, enough virus is prepared and frozen to complete over one thousand microtiter plates, allowing the testing of up to two thousand compounds from a single stock of infectious virus.
Virus infection of the CEM and MT-2 cells for the antiviral assay is carried out in a bulk infection process.

[4] abbreviates: normalized to positive control (=1.0), * = a calculated average, read-out: Fluorescence Assay IC50 in ng/mL (converted).
The mark [5] stands for this setting: value as run, 35B value of the same run in footnote or parentheses, read-out: Pandex IC50 ng/ml (converted).
[6] abbreviates: normalized to positive control (=1.0), * = a calculated average.
The mark [7] stands for this setting: value as run, 35B value of the same run in footnote or parentheses.

`CN1CCc2c(cccc2C(=O)N[C@@H](CSc2ccc3ccccc3c2)[C@H](O)Cc2ccccc2C(=O)NC(C)(C)C)C1` (relative stereo) [Example 59, [2′R-(2′R*,3′S*)]-N-t-Butyl-2-[2′-hydroxy-3′-naphth-2-ylthiomethyl-4′-aza-5′-oxo-5′-[2-N′(methyl)-1″,2″,3″,4″-tetrahydroisoquinolin-5″-yl)pentyl] benzamide] had a melting point of 110 to 113 °C. Further, the IC50 on HIV-1 protease (setting [4]) is 587 nM.
With `Cc1c(OP(=O)(O)O)cccc1C(=O)N[C@@H](Cc1ccccc1)[C@H](O)CN1C[C@H]2CCCC[C@H]2C[C@H]1C(=O)NC(C)(C)C` (relative stereo) [Example 78, [3S-(3R*, 4aR*, 8aR*, 2′S*, 3′R*)]-2-[2′-Hydroxy-3′-phenylmethyl-4′-aza-5′-oxo-5′-(2″-methyl-3″-Hydroxyphenyl)pentyl]decahydroisoquinoline-3-N-t-butyl carboxamide 3″-dihydrogen phosphate], in data set [1], the “SRI MT2 IC50” value is 0.08 µg/mL. Also, the IC50 on HIV-1 protease (setting [5]) is 3240 nM; in data set [2] (read-out: Whole cell IC50 nM, CEM cells), 8.64 nM. In data set [2] (read-out: Whole cell IC90 nM, CEM cells), the IC90 is 66.5 nM.
Turning to `CC(C)(C)NC(=O)[C@@H]1C[C@@H]2SCC[C@@H]2CN1C[C@@H](O)[C@H](CSc1ccccc1)NC(=O)C1CCS(=O)(=O)C1` (relative stereo) [Example 89, [6S-(6R*, 3aS*, 7aR*, 2′S*, 3′S*)]-2-[2′-Hydroxy-3′-phenylthiomethyl-4′-aza-5′-oxo-5′-(tetrahydrothieno-3″-yl-1″,1″-dioxide)pentyl]-octahydrothieno[3,2-c]pyridine-6-N-t-butyl carboxamide], in data set [3], the “CEM IC95” value stood at 98 nM. Moreover, at HIV-1 protease (setting [5]), the IC50 was 0.856 nM.
For `CC(C)(C)NC(=O)C1CC2CCCCC2CN1CC(O)C(Cc1ccccc1)NC(=O)c1cccc(Cl)c1Cl` (stereo not drawn) [Example 14, [3S-(3R*,4aR*,8aR*,2′S*,3′R*)]-2-[2′-Hydroxy-3′-phenylmethyl-4′-aza-5′-oxo-5′-(2″,3″-dichloro-phenyl)pentyl] decahydroisoquinoline-3-N-t-butylcarboxamide], the “SRI MT2 IC50” value in data set [1] is 1.61 µg/mL and 1.29 µg/mL. Besides, the “Fluorescence Assay IC50” value at HIV-1 protease (setting [6]) was 0.101 µg/mL. In addition, the “Pandex IC50 ng/ml” value on HIV-1 protease (setting [7]) is recorded as 48.7^d ng/ml.
For the compound `Cc1cnccc1C(=O)NC(CSc1ccccc1)C(O)CN1CCN(Cc2cccnc2)CC1C(=O)NC(C)(C)C` (stereo not drawn) [Example 35, [2S-(2R*,2′S*,3′S*)]-1-[2′-Hydroxy-3′-phenylthiomethyl-4′-aza-5′-oxo-5′-(3″-methyl-pyrid-4″-yl)[pentyl]-4-(pyrid-3′″-ylmethyl)piperazine-2-N-t-butylcarboxamide], the “SRI MT2 IC50” value in data set [1] is 0.519 µg/mL and 0.368 µg/mL. Moreover, at HIV-1 protease (setting [6]), the “Fluorescence Assay IC50” value is 0.0317 µg/mL. Besides, the “Pandex IC50 ng/ml” value at HIV-1 protease (setting [7]) is 73^c ng/ml.
In turn, `Cc1c(N)cccc1C(=O)NC(CSc1ccc2ccccc2c1)C(O)Cc1ccccc1C(=O)NC(C)(C)C` (stereo not drawn) [Example 42, [2′R-(2′R*,3′S*)]-N-t-Butyl-2-[2′-hydroxy-3′-naphth-2-ylthiomethyl-4′-aza-5′-oxo-5′-(2″-methyl-3″-aminophenyl)pentyl] benzamide] had a melting point of 105 to 106 °C. Further, the IC50 at HIV-1 protease (setting [4]) is 191 nM.
In turn, `CC(C)(C)NC(=O)c1ccccc1C[C@@H](O)[C@@H](CSc1ccc2ccccc2c1)NC(=O)c1cccc(N)c1Cl` [Example 44, [2′R-(2′R*,3′S*)]-N-t-Butyl-2-[2′-hydroxy-3′-naphth-2-ylthiomethyl-4′-aza-5′-oxo-5′-(2″-chloro-3″-aminophenyl)pentyl] benzamide] gave a melting point of 107 to 108 °C. The IC50 at HIV-1 protease (setting [4]) was 121 nM.
`CC(C)(C)NC(=O)c1ccccc1CC(O)C(CSc1ccc2ccccc2c1)NC(=O)c1cccc(N)c1Br` (stereo not drawn) [Example 45, [2′R-(2′R*,3′S*)]-N-t-Butyl-2-[2′-hydroxy-3′-naphth-2-ylthiomethyl-4′-aza-5′-oxo-5′-(2″-bromo-3″-aminophenyl)pentyl] benzamide] yielded a melting point of 110 to 112 °C. In addition, at HIV-1 protease (setting [4]), the IC50 was 214 nM.
In the same order, the values of `CC(C)(C)NC(=O)c1c(CC(O)C(CSc2ccc3ccccc3c2)NC(=O)c2cccc(N)c2Cl)ccc2ccccc12` (stereo not drawn) [Example 49, [2′R-(2′R*,3′S*)]-N-t-Butyl-2-[2′-hydroxy-3′-naphth-2-ylthiomethyl-4′-aza-5′-oxo-5′-(2″-chloro-3″-aminophenyl)pentyl]-1-naphthylamide] are 110 to 112 °C and 137 nM.
The corresponding values for `CC(C)(C)NC(=O)c1ccccc1CC(O)C(CSc1ccc2ccccc2c1)NC(=O)c1cccc(N)c1` (stereo not drawn) [Example 50, [2′R-(2′R*,3′S*)]-N-t-Butyl-2-[2′-hydroxy-3′-naphth-2-ylthiomethyl-4′-aza-5′-oxo-5′-(3″-aminophenyl)pentyl] benzamide] are 101 to 102 °C and 222 nM.
The compound `CC(C)(C)NC(=O)c1ccccc1CC(O)C(CSc1ccc2ccccc2c1)NC(=O)c1cc(N)ccc1Cl` (stereo not drawn) [Example 55, [2′R-(2′R*,3′S*)]-N-t-Butyl-2-[2′-hydroxy-3′-naphth-2-ylthiomethyl-4′-aza-5′-oxo-5′-(2″-chloro-5″-aminophenyl)pentyl] benzamide] had a melting point of 109 to 110 °C. Moreover, the IC50 at HIV-1 protease (setting [4]) was 194 nM.
Turning to `CC(C)(C)NC(=O)c1ccccc1C[C@@H](O)[C@@H](CSc1ccc2ccccc2c1)NC(=O)c1cccc2ccccc12` [Example 61, [2′R-(2′R*,3′S*)]-N-t-Butyl-2-[2′-hydroxy-3′-naphth-2-ylthiomethyl-4′-aza-5′-oxo-5′-(naphth-1″-yl)pentyl] benzamide], the melting point was 92 to 95 °C. In addition, the IC50 at HIV-1 protease (setting [4]) was 2770 nM.
